# In article PMC6522510 (Nature Communications, 2019):
# Legend:
# Parameters in all cases: species or system AML cell lines (8); Primary HTS, single concentration about 10 uM, Cell Titer Glo viability; log10 luminescence, per cent inhibition relative to cycloheximide control
# Conditions in all cases: 72 h, relative to cycloheximide control, log10 luminescence; inhibitor
# CHRF288-11 = system: CHRF288-11
# CMK = system: CMK
# CMS = system: CMS
# M07e = system: M07e
# ML-2 = system: ML-2
# MOLM-13 = system: MOLM-13
# MV4-11 = system: MV4-11
# U937 = system: U937
SMILES,CHRF288-11 %inh (CHRF288-11) [%],CMK %inh (CMK) [%],CMS %inh (CMS) [%],M07e %inh (M07e) [%],ML-2 %inh (ML-2) [%],MOLM-13 %inh (MOLM-13) [%],MV4-11 %inh (MV4-11) [%],U937 %inh (U937) [%]
"O=C(O[C@H]1CN[C@H](C#Cc2cc3ncnc(Nc4ccc5c(cnn5Cc5ccccc5)c4)c3s2)C1)N1CCOCC1 [SJ000573215-1, U19635/172/2]",51,78.93,5.16,-0.8707,2.941,2.242,1.975,3.001
"COc1cccc(-n2ncc3c(N/N=C/c4cccc(F)c4)ncnc32)c1 [SJ000573217-1, U18028/186/1]",-0.7991,-7.034,0.08051,-2.637,0.8639,-3.305,-3.164,-3.323
"COc1ccc2[nH]c3c4[nH]c5ccc(OC)cc5c4c4c(c3c2c1)C(=O)NC4=O [SJ000573218-1, 3744W 92C*D]",13.67,26.51,16.49,25.27,9.324,81.75,76.35,14.28
"COc1cccc(-n2ncc3c(N/N=C/c4ccc(F)cc4)ncnc32)c1 [SJ000573219-1, U18028/188/1]",-1.076,-2.994,1.318,4.179,1.489,0.1437,-2.52,-0.8072
"COc1ccc(-c2cc3c(N)ncnc3o2)cc1 [SJ000573220-1, R6872/65/2]",23.46,5.591,5.247,10.8,2.103,4.813,-2.253,-1.174
"CN1CCC(n2cnc(-c3ccc(F)cc3)c2-c2ccnc(N)n2)CC1 [SJ000573221-1, JB19236-039E1]",35.57,38.27,5.129,20.04,19.36,26.24,16.49,13.28
"CCn1c(-c2nonc2N)nc2cnc(Oc3cccc(NC(=O)c4ccc(OCCN5CCOCC5)cc4)c3)cc21 [SJ000573222-1, HC204505-099A1]",16.4,59.96,9.487,-2.093,11.73,15.66,34.29,38.21
"c1ccc(-c2n[nH]cc2-c2ccnc(-c3ccc(OCCn4ccnc4)cc3)c2)nc1 [SJ000573223-1, FVLN/241/112/1]",4.882,2.62,-2.708,-2.852,-0.7623,3.444,2.943,-2.834
"Fc1ccc(Nc2nccc(-c3c(-c4ccc(C(F)(F)F)cc4)nn4ncccc34)n2)cc1F [SJ000573224-1, U17838/186/3]",-0.9437,0.9298,-1.104,-1.97,2.7,-1.248,-1.825,0.5152
"FC(F)(F)c1ccc(-c2nn3ncccc3c2-c2ccnc(Nc3ccc4c(c3)OCCO4)n2)cc1 [SJ000573225-1, U17838/185/2]",13.54,-4.267,-3.296,2.059,1.234,-3.312,7.035,-2.674
"COc1cc(C=NNc2ncnc3c2cnn3-c2ccccc2)ccc1O [SJ000573226-1, U14681/58/1]",10.72,-0.5633,3.107,11.87,-0.2562,3.51,35.25,8.322
"CN(C)CCOc1ccc(-c2cc(-c3ccc4c(c3)CCC4=NO)c(-c3ccncc3)o2)cc1 [SJ000573227-1, JS84326-047A1]",127,15.46,6.225,14.13,66.89,21.06,2.356,9.989
"CCc1nccc2c1nc(-c1nonc1N)n2CC [SJ000573228-1, DW100508-159A1]",7.841,3.989,-0.9805,-1.816,3.812,4.708,4.392,6.241
"Cn1c(-c2nonc2N)nc2cnccc21 [SJ000573229-1, SD100950-025A1]",1.476,8.868,2.573,-6.783,1.359,0.5998,1.313,2.832
"COc1ccc(-c2nn3ncccc3c2-c2ccnc(Nc3ccc(F)c(F)c3)n2)cc1 [SJ000573231-1, U17838/182/3]",-2.425,1.273,1.385,-2.16,2.035,-1.234,-1.012,-1.69
"COc1ccc2c(-c3ccnc(Nc4cccc(OC(F)(F)F)c4)n3)cnn2n1 [SJ000573232-1, U17838/93/4]",5.074,-2.18,1.867,3.247,8.399,-2.645,0.503,2.538
"CCOc1ccc2c(-c3ccnc(Nc4cc(OC)cc(C(F)(F)F)c4)n3)cnn2n1 [SJ000573233-1, U17838/82/6]",13.25,-2.522,0.7407,5.562,0.4459,-2.068,0.1159,1.137
"Clc1ccc(CNc2nccc(-c3cnn4ncccc34)n2)cc1 [SJ000573234-1, U16767/129/1]",14.43,3.942,12.69,7.216,6.981,8.357,36.98,20.4
"CN1CCC(n2cnc(-c3ccc(F)cc3)c2-c2ccnc(Nc3ccccc3)n2)CC1 [SJ000573236-1, TG19207-284A1]",30.13,43.62,10.11,7.373,9.737,50.36,26.4,6.434
"Cc1nn(C)c2cc(N(C)c3ccnc(Nc4cccc(S(N)(=O)=O)c4)n3)ccc12 [SJ000573237-1, U17574/1/1]",20.72,54.18,12.43,4.667,1.956,82.12,42.73,9.474
"CN(C)CCNC(=O)Nc1ccc(N(C)c2ccnc(Nc3ccc(CS(C)(=O)=O)cc3)n2)cc1 [SJ000573239-1, U17983/95/3]",29.73,26.79,-0.9741,0.06927,15.37,92.53,73.54,-1.201
"COc1ccc(CNC(=O)c2ccc(-c3cc(-c4nnc(C)o4)ccc3C)cc2)cc1 [SJ000573240-1, R5419/62/2]",2.517,-2.585,-0.9608,1.245,2.422,2.636,-0.02622,0.2137
"Cc1cc(O)cc(C)c1/C=C/c1cncc(C(=O)N(C)C)c1 [SJ000573241-1, U11962/4/2]",4.933,1.656,2.581,3.606,-0.6112,-1.208,0.1016,-1.176
